Laboratory results as given in BindingDB's records for doi:10.7270/Q2ZW1JC6 (Nmmlsc, 2016).

Target: Ras-related protein Rab-2A (Canis lupus familiaris, UniProt P61105)
Assay: Rab2 wildtype GTP-binding inhibitors, SAR follow-up, biochemical, pyrazoline series, Bodipy-FL-GTP, flow cytometry, multiplex (AID 2045)
[1] = inactive by the depositor's call

Chain of Ras-related protein Rab-2A (P61105 whole entry): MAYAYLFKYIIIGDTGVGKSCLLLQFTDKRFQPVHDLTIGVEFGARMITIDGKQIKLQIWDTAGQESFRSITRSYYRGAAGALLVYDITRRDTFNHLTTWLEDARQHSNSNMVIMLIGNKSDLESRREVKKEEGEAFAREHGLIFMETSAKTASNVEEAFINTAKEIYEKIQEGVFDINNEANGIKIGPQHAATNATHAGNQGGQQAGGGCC

| SMILES | EC50 | EC50 [1] |
| --- | --- | --- |
| Cc1onc(-c2ccccc2)c1-c1ccc(S(N)(=O)=O)cc1 | > 30 µM | – |
| O=[N+]([O-])c1ccc([N+]2=N[C-](c3ccccc3)CC2c2ccccc2)cc1 (stereo unspecified) | > 30 µM | – |
| Brc1ccc(N2N=C(c3ccccc3)CC2c2ccccc2)cc1 (stereo unspecified) | > 30 µM | – |
| COc1ccccc1C1CC(c2ccccc2)=NN1c1ccccc1 (stereo unspecified) | > 30 µM | – |
| Clc1cccc(N2N=C(c3ccccc3)CC2c2ccccc2)c1 (stereo unspecified) | > 30 µM | – |
| Clc1ccc(N2N=C(c3ccccc3)CC2c2ccccc2)cc1 (stereo unspecified) | > 30 µM | – |
| CC(=O)Oc1ccc(C2=NN(c3ccccc3)C(c3ccccc3)C2)cc1 (stereo unspecified) | > 30 µM | – |
| O=C(O)c1ccc(N2N=C(c3ccccc3)CC2c2ccccc2)cc1 (stereo unspecified) | > 30 µM | – |
| COc1ccc(C2=NN(c3ccccc3)C(c3ccccc3C(F)(F)F)C2)cc1 (stereo unspecified) | > 30 µM | – |
| O=S(=O)(c1ccc(N2N=C(c3ccccc3)CC2c2ccccc2)cc1)C(F)F (stereo unspecified) | > 30 µM | – |
| NS(=O)(=O)c1ccc(N2N=C(c3ccc(Cl)cc3)CC2c2ccccc2)cc1 (stereo unspecified) | – | 0.056 µM |
| CCc1ccc(C2=NN(c3ccc(S(N)(=O)=O)cc3)C(c3ccc(F)cc3)C2)cc1 (stereo unspecified) | > 30 µM | – |
| CN(C)c1ccc(C2C[C-](c3ccccc3)N=[N+]2c2ccc([N+](=O)[O-])cc2)cc1 (stereo unspecified) | > 30 µM | – |
| COc1ccc(C2CC(c3ccc(F)cc3)=NN2c2cccc(F)c2)cc1OC (stereo unspecified) | > 30 µM | – |
| COc1ccc(C2CC(c3ccccc3)=NN2c2ccc(Cl)c(C(=O)O)c2)cc1 (stereo unspecified) | > 30 µM | – |
| COc1ccc(C2CC(c3ccc(Cl)cc3)=NN2c2ccc(S(N)(=O)=O)cc2)cc1 (stereo unspecified) | > 30 µM | – |
| Cc1ccc(C2CC(c3ccccc3)=NN2c2ccc(S(N)(=O)=O)cc2)cc1 (stereo unspecified) | > 30 µM | – |
| Cc1cccc(C2CC(c3ccccc3)=NN2c2ccc(S(N)(=O)=O)cc2)c1 (stereo unspecified) | > 30 µM | – |
| COc1ccc(C2CC(c3ccccc3OC)=NN2c2ccc(S(N)(=O)=O)cc2)cc1 (stereo unspecified) | > 30 µM | – |
| COc1ccc(C2CC(c3ccc(C)cc3)=NN2c2ccc(S(N)(=O)=O)cc2)cc1 (stereo unspecified) | > 30 µM | – |
| COc1ccc(C2CC(c3cccc(C(F)(F)F)c3)=NN2c2ccc(S(N)(=O)=O)cc2)cc1 (stereo unspecified) | > 30 µM | – |
| COc1ccc(C2CC(c3cccc(N(C)C)c3)=NN2c2ccc(S(N)(=O)=O)cc2)cc1 (stereo unspecified) | > 30 µM | – |

| SMILES | EC50 | EC50 [1] |
| --- | --- | --- |
| COc1ccc(C2CC(c3cccnc3)=NN2c2ccc(S(N)(=O)=O)cc2)cc1 (stereo unspecified) | > 30 µM | – |
| COc1ccc(C2CC(c3ccncc3)=NN2c2ccc(S(N)(=O)=O)cc2)cc1 (stereo unspecified) | > 30 µM | – |
| Fc1ccccc1C1CC(c2ccc(Br)cc2)=NN1c1ccc(Br)cc1 (stereo unspecified) [2,5-bis(4-bromophenyl)-3-(2-fluorophenyl)-3,4-dihydropyrazole] | > 30 µM | – |
| COc1ccc(C2CC(c3ccc(F)cc3)=NN2c2cc(Cl)ccc2Cl)cc1 (stereo unspecified) [2-(2,5-dichlorophenyl)-5-(4-fluorophenyl)-3-(4-methoxyphenyl)-3,4-dihydropyrazole] | > 30 µM | – |
| COc1ccc(C2=NN(c3ccc(Cl)c(Cl)c3)C(c3ccc(OC)cc3)C2)cc1 (stereo unspecified) [2-(3,4-dichlorophenyl)-3,5-bis(4-methoxyphenyl)-3,4-dihydropyrazole] | > 30 µM | – |
| Fc1ccc(C2=NN(c3cccc(Br)c3)C(c3ccccc3)C2)cc1 (stereo unspecified) [2-(3-bromophenyl)-5-(4-fluorophenyl)-3-phenyl-3,4-dihydropyrazole] | > 30 µM | – |
| COc1ccc(C2=NN(c3cccc(F)c3)C(c3ccc(OC)cc3)C2)cc1 (stereo unspecified) [2-(3-fluorophenyl)-3,5-bis(4-methoxyphenyl)-3,4-dihydropyrazole] | – | 1 µM |
| COc1ccc(C2CC(c3ccccc3)=NN2c2ccc(Cl)c(C(=O)O)c2)cc1OC (stereo unspecified) [2-chloro-5-[3-(3,4-dimethoxyphenyl)-5-phenyl-3,4-dihydropyrazol-2-yl]benzoic acid] | > 30 µM | – |
| COc1ccc(C2=NN(c3cccc(F)c3)C(c3ccc(Cl)cc3)C2)cc1 (stereo unspecified) [3-(4-chlorophenyl)-2-(3-fluorophenyl)-5-(4-methoxyphenyl)-3,4-dihydropyrazole] | > 30 µM | – |
| COc1ccc(C2C[C-](c3ccccc3)N=[N+]2c2ccc([N+](=O)[O-])cc2)cc1 (stereo unspecified) [3-(4-methoxyphenyl)-2-(4-nitrophenyl)-5-phenyl-3,4-dihydropyrazole] | > 30 µM | – |
| COc1ccc(C2CC(c3ccccc3)=NN2c2cccc(S(N)(=O)=O)c2)cc1 (stereo unspecified) [3-[3-(4-methoxyphenyl)-5-phenyl-3,4-dihydropyrazol-2-yl]benzenesulfonamide] | – | 0.074 µM |
| CN(C)c1ccc(C2CC(c3ccccc3)=NN2c2ccccc2)cc1 (stereo unspecified) [4-(2,5-diphenyl-3,4-dihydropyrazol-3-yl)-N,N-dimethylaniline] | > 30 µM | – |
| NS(=O)(=O)c1ccc(N2N=C(c3ccccc3)CC2c2ccccc2)cc1 (stereo unspecified) [4-(3,5-diphenyl-3,4-dihydropyrazol-2-yl)benzenesulfonamide] | > 30 µM | – |
| COc1ccc(C2=NN(c3ccc(S(N)(=O)=O)cc3)C(c3ccc(OC)cc3)C2)cc1 (stereo unspecified) [4-[3,5-bis(4-methoxyphenyl)-3,4-dihydropyrazol-2-yl]benzenesulfonamide] | – | 1.69 µM |
| NS(=O)(=O)c1ccc(N2N=C(c3ccccc3)CC2c2ccccc2Br)cc1 (stereo unspecified) [4-[3-(2-bromophenyl)-5-phenyl-3,4-dihydropyrazol-2-yl]benzenesulfonamide] | > 30 µM | – |
| COc1ccccc1C1CC(c2ccccc2)=NN1c1ccc(S(N)(=O)=O)cc1 (stereo unspecified) [4-[3-(2-methoxyphenyl)-5-phenyl-3,4-dihydropyrazol-2-yl]benzenesulfonamide] | > 30 µM | – |
| COc1cccc(C2CC(c3ccccc3)=NN2c2ccc(S(N)(=O)=O)cc2)c1 (stereo unspecified) [4-[3-(3-methoxyphenyl)-5-phenyl-3,4-dihydropyrazol-2-yl]benzenesulfonamide] | > 30 µM | – |
| NS(=O)(=O)c1ccc(N2N=C(c3ccccc3)CC2c2ccc(Cl)cc2)cc1 (stereo unspecified) [4-[3-(4-chlorophenyl)-5-phenyl-3,4-dihydropyrazol-2-yl]benzenesulfonamide] | > 30 µM | – |
| COc1ccc(C2CC(c3ccc(C(F)(F)F)cc3)=NN2c2ccc(S(N)(=O)=O)cc2)cc1 (stereo unspecified) [4-[3-(4-methoxyphenyl)-5-[4-(trifluoromethyl)phenyl]-3,4-dihydropyrazol-2-yl]benzenesulfonamide] | > 30 µM | – |
| COc1ccc(C2CC(C)=NN2c2ccc(S(N)(=O)=O)cc2)cc1 (stereo unspecified) [4-[3-(4-methoxyphenyl)-5-methyl-3,4-dihydropyrazol-2-yl]benzenesulfonamide] | > 30 µM | – |
| COc1ccc(C2CC(c3ccsc3)=NN2c2ccc(S(N)(=O)=O)cc2)cc1 (stereo unspecified) [4-[3-(4-methoxyphenyl)-5-thiophen-3-yl-3,4-dihydropyrazol-2-yl]benzenesulfonamide] | > 30 µM | – |
| COc1ccc(C2CC(c3ccccc3Cl)=NN2c2ccc(S(N)(=O)=O)cc2)cc1 (stereo unspecified) [4-[5-(2-chlorophenyl)-3-(4-methoxyphenyl)-3,4-dihydropyrazol-2-yl]benzenesulfonamide] | > 30 µM | – |

| SMILES | EC50 | EC50 [1] |
| --- | --- | --- |
| COc1ccc(C2CC(c3cccc(F)c3)=NN2c2ccc(S(N)(=O)=O)cc2)cc1 (stereo unspecified) [4-[5-(3-fluorophenyl)-3-(4-methoxyphenyl)-3,4-dihydropyrazol-2-yl]benzenesulfonamide] | > 30 µM | – |
| COc1ccc(C2CC(c3cccc(OC)c3)=NN2c2ccc(S(N)(=O)=O)cc2)cc1 (stereo unspecified) [4-[5-(3-methoxyphenyl)-3-(4-methoxyphenyl)-3,4-dihydropyrazol-2-yl]benzenesulfonamide] | > 30 µM | – |
| NS(=O)(=O)c1ccc(N2N=C(c3ccc(Br)cc3)CC2c2ccc(F)cc2)cc1 (stereo unspecified) [4-[5-(4-bromophenyl)-3-(4-fluorophenyl)-3,4-dihydropyrazol-2-yl]benzenesulfonamide] | > 30 µM | – |
| COc1ccc(C2CC(c3ccc(F)cc3)=NN2c2ccc(S(N)(=O)=O)cc2)cc1 (stereo unspecified) [4-[5-(4-fluorophenyl)-3-(4-methoxyphenyl)-3,4-dihydropyrazol-2-yl]benzenesulfonamide] | – | 0.015 µM |
| COc1ccc(-c2cc(-c3ccccc3)nn2-c2ccc(S(N)(=O)=O)cc2)cc1 [4-[5-(4-methoxyphenyl)-3-phenylpyrazol-1-yl]benzenesulfonamide] | > 30 µM | – |
| COc1ccc(C2CC(C3CCCCC3)=NN2c2ccc(S(N)(=O)=O)cc2)cc1 (stereo unspecified) [4-[5-cyclohexyl-3-(4-methoxyphenyl)-3,4-dihydropyrazol-2-yl]benzenesulfonamide] | > 30 µM | – |
| O=S(=O)(c1ccc(N2N=C(c3ccc(Br)cc3)CC2c2ccccc2)cc1)C(F)F (stereo unspecified) [5-(4-bromophenyl)-2-[4-(difluoromethylsulfonyl)phenyl]-3-phenyl-3,4-dihydropyrazole] | > 30 µM | – |
| FC(F)(F)c1ccccc1C1CC(c2ccc(Br)cc2)=NN1c1ccccc1 (stereo unspecified) [5-(4-bromophenyl)-2-phenyl-3-[2-(trifluoromethyl)phenyl]-3,4-dihydropyrazole] | > 30 µM | – |
| O=[N+]([O-])c1cccc(C2C[C-](c3ccc(F)cc3)N=[N+]2c2ccccc2)c1 (stereo unspecified) [5-(4-fluorophenyl)-3-(3-nitrophenyl)-2-phenyl-3,4-dihydropyrazole] | > 30 µM | – |
| Cc1ccc(-c2cc(C(F)(F)F)nn2-c2ccc(S(N)(=O)=O)cc2)cc1 [Celecoxib] | > 30 µM | – |
| COc1ccc(C2CC(c3ccc(N(C)C)cc3)=NN2c2ccc(S(N)(=O)=O)cc2)cc1 (stereo unspecified) [KUC103422N] | > 30 µM | – |
| COc1ccc(C2CC(c3cccs3)=NN2c2ccc(S(N)(=O)=O)cc2)cc1 (stereo unspecified) [KUC103438N] | > 30 µM | – |
| NS(=O)(=O)c1ccc(N2N=C(c3ccccc3)CC2c2ccccc2Cl)cc1 (stereo unspecified) [KUC103446N] | > 30 µM | – |
| COc1ccc(C2CC(C(C)(C)C)=NN2c2ccc(S(N)(=O)=O)cc2)cc1 (stereo unspecified) [KUC103450N] | > 30 µM | – |
| COc1ccc(C2CC(c3ccccc3C(F)(F)F)=NN2c2ccc(S(N)(=O)=O)cc2)cc1 (stereo unspecified) [KUC103474N] | > 30 µM | – |
| Cc1ccccc1N1N=C(c2ccccc2)CC1c1ccc(N(C)C)cc1 (stereo unspecified) [N,N-dimethyl-4-[2-(2-methylphenyl)-5-phenyl-3,4-dihydropyrazol-3-yl]aniline] | > 30 µM | – |
| COc1ccc(C2CC(c3ccccc3)=NN2c2ccc(S(N)(=O)=O)cc2)cc1OC (stereo unspecified) [UNM-0000305823] | > 30 µM | – |
| COc1ccc(C2CC(c3ccc(Br)cc3)=NN2c2ccccc2Cl)cc1 (stereo unspecified) [UNM-0000305832] | > 30 µM | – |
| COc1ccc(C2=NN(c3ccccc3)C(c3ccc(Cl)cc3)C2)cc1 (stereo unspecified) [UNM-0000305833] | > 30 µM | – |
| O=S(=O)(O)c1ccc(N2N=C(c3ccccc3)CC2c2ccccc2)cc1 (stereo unspecified) [UNM-0000305834] | > 30 µM | – |
| Cc1cccc(N2N=C(c3ccccc3)CC2c2ccccc2)c1 (stereo unspecified) [UNM-0000305835] | > 30 µM | – |
| O=[N+]([O-])c1ccc([N+]2=N[C-](c3ccccc3)CC2c2ccc(O)cc2)cc1 (stereo unspecified) [UNM-0000305838] | > 30 µM | – |
